Reference: publication PMC6270872, “Xanthenedione Derivatives, New Promising Antioxidant and Acetylcholinesterase Inhibitor Agents” (Molecules, 2014)
Converted amounts (≈) assume the structure as drawn. “Also recorded” adds a separate entry of the source.

Columns and labels:
[1] = Reducing power, potassium ferricyanide reduction method; conditions: four concentrations, 20–80 μg/mL; absorbance at 700 nm; references BHT and quercetin (Figure 3)
Description: The reductive potential of the compounds and standard was determined according to a previously described method. An aliquot of the sample or standard (1.0 mL) at various concentrations (20–80 μg/mL in DMSO) was mixed with phosphate buffer (0.2 mol L^−^1, pH 6.6, 1.25 mL) and 1% potassium ferricyanide (1.25 mL). The mixture was incubated at 50 °C for 20 min. After cooling, 1.25 mL of 10% trichloroacetic acid was added and the mixture incubated at 50 °C for 10 min. 1.25 mL of this solution was mixed with distilled water (1.25 mL) and 0.1% iron(III) chloride (0.25 mL) and the absorbance measured at 700 nm using an appropriate blank. Assays were carried out in triplicate.

[2] = molecular target: T1, AChE from Electrophorus electricus (Electrophorus electricus, UniProt O42275); experiment: biochemical; format: biochemical; conditions: for IC50: ± SD, n = 4, read-out: Anti-AChE IC50
T1 construct: purchased Sigma-Aldrich Chemical Company, St. Louis, MO, USA
T1 sequence (O42275 24-633): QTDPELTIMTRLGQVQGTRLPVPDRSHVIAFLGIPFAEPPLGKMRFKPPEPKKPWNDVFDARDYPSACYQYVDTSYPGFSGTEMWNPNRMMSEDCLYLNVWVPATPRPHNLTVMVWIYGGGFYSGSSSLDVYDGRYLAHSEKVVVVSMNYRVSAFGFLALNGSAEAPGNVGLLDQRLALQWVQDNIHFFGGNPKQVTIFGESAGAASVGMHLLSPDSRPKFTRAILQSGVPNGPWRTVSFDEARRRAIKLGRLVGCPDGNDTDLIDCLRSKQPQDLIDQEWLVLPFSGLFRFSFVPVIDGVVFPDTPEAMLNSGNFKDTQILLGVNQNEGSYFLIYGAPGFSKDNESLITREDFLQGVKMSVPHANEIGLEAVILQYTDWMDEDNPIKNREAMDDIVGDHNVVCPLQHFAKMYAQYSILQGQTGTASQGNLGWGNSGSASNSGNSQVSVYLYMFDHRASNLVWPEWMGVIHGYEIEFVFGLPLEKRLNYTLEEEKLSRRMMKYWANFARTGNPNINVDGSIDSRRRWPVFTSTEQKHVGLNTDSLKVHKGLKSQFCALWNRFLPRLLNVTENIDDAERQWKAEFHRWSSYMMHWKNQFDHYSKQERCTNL
Description: The AChE activity was evaluated using the method described by Ellman et al. and Ingkaninan et al., modified. Briefly, 10 μL of 0.25 U/mL AChE from Electrophorus electricus (Sigma-Aldrich® Chemical Company, St. Louis, MO, USA) was added to the wells containing sample in different concentrations, and allowed to incubate for 5 min. Reaction was started by the addition 5 μL of 3 mM 5,5'-dithiobis[2-nitrobenzoic acid] (DTNB,) and 5 μL of 75 mM acetylthiocholine iodide (ATCI; Fluka Chemicals, Buchs, Switzerland). The absorbance was then read at 415 nm every 2.5 min for 7.5 min in a Bio Rad Model 680 Microplate Reader (Bio-Rad Laboratories, Inc., Hercules, CA, USA). Percentage of enzymatic inhibition was calculated relatively to the control without inhibitor. Every experiment was done in quadruplicate. […] PROGRAM Version 1.4 was used.

[3] = DPPH radical scavenging assay; conditions: for EC50: concentration of the compound to reduce the DPPH radical concentration to 50%, ± SD; for Radical Scavenging Activity AE (antiradical efficiency): AE = 1/(EC50 × TEC50), TEC50 = time to reach the steady state for the EC50
Description: Antioxidant activity was assayed by the DPPH (1,1-diphenyl-2-picrylhydrazyl) radical scavenging assay using the Blois method modified. […] In each assay, a control was prepared, in which the compound or standard (quercetin and BHT) was substituted by the same amount of solvent. The mixture was shaken vigorously and left to stand for 30 min in the dark, and the absorbance was then measured at 517 nm. The capability to scavenge the DPPH radical was calculated using the following equation: DPPH scavenging activity (%) = [(Ac − As)/Ac] × 100(1) where, Ac is the absorbance of the control and As is the absorbance of the compound or standard. All assays were carried out in triplicate and results expressed as EC50, i.e., as the concentration yielding 50% scavenging of DPPH, calculated by interpolation from the % vs. concentration curve.

[4] = Maximum soluble concentration in the DPPH assay; format: physicochemical; conditions: ethanol (ethanolic solution of the DPPH assay), ethanolic solutions, read-out: maximum concentration at which the compound is soluble
Description: Antioxidant activity was assayed by the DPPH (1,1-diphenyl-2-picrylhydrazyl) radical scavenging assay using the Blois method modified [24]. Briefly, different volumes of the ethanolic solutions of each compound or standard (1–100 µM) were added fixed volume of DPPH ethanolic solution (400 µL of the solution 0.6 mM) and solvent (ethanol) to obtain, in each case, a fixed total volume. In each assay, a control was prepared, in which the compound or standard (quercetin and BHT) was substituted by the same amount of solvent. The mixture was shaken vigorously and left to stand for 30 min in the dark, and the absorbance was then measured at 517 nm. The capability to scavenge the DPPH radical was calculated using the following equation: DPPH scavenging activity (%) = [(Ac − As)/Ac] × 100(1) where, Ac is the absorbance of the control and As is the absorbance of the compound or standard. All assays were carried out in triplicate and results expressed as EC50, i.e., as the concentration yielding 50% scavenging of DPPH, calculated by interpolation from the % vs. concentration curve.

| Structure (SMILES) | Reducing power (reduction of ferric ion) [1] | IC50 [2] | DPPH quenched ([3]; at 552 µM, the maximum soluble concentration) | EC50 [3] | Type of AChE inhibition [2] | solubility [4] | Radical Scavenging Activity AE (antiradical efficiency) [3] |
| --- | --- | --- | --- | --- | --- | --- | --- |
| O=C1CC(c2ccccc2)C(=Cc2ccccc2)c2oc3cccc(O)c3c(=O)c21 (centres unmarked) [Compound 5a, (E)-3-Aryl-4-benzylidene-8-hydroxy-3,4-dihydro-1H-xanthene-1,9(2H)-dione] | did not significantly reduce ferric ion | > 381 µM | – | – | – | – | – |
| Cc1ccc(/C=C2/c3oc4cccc(O)c4c(=O)c3C(=O)CC2c2ccc(C)cc2)cc1 (centres unmarked) [Compound 5b, (E)-8-Hydroxy-4-(4-methylbenzylidene)-3-(4-methylphenyl)-3,4-dihydro-1H-xanthene-1,9(2H)-dione] | – | > 355 µM | – | – | – | – | – |
| O=C1CC(c2ccc(O)cc2)C(=Cc2ccc(O)cc2)c2oc3cccc(O)c3c(=O)c21 (centres unmarked) [Compound 5c] | did not significantly reduce ferric ion | 41.1 ± 6.1 µM | 36% | > 552 µM | mixed type inhibition | 552 µM (≈ 235 µg/mL) | – |
| O=C1CC(c2ccc(Cl)cc2)C(=Cc2ccc(Cl)cc2)c2oc3cccc(O)c3c(=O)c21 (centres unmarked) [Compound 5d] | – | > 325 µM | – | – | – | – | – |
| O=C1CC(c2ccc(O)c(O)c2)C(=Cc2ccc(O)c(O)c2)c2oc3cccc(O)c3c(=O)c21 (centres unmarked) [Compound 5e, (E)-8-Hydroxy-4-(3,4-dihydroxybenzylidene)-3-(3,4-dihydroxyphenyl)-3,4-dihydro-1H-xanthene-1,9-(2H)-dione] | higher reduction capacity than BHT and similar to quercetin; also recorded: more efficient than BHT and similar to quercetin | 31 ± 0.09 µM | – | 3.79 ± 0.06 µM | almost pure competitive type inhibition | – | 0.026 |
| O=C1CC(c2ccccc2Cl)/C(=C\c2ccccc2Cl)c2oc3cccc(O)c3c(=O)c21 (centres unmarked) [Compound 5f, (E)-4-(2-Chlorobenzylidene)-3-(2-chlorophenyl)-8-hydroxy-3,4-dihydro-1H-xanthene-1,9(2H)-dione] | – | > 325 µM | – | – | – | – | – |
| O=c1c(O)c(-c2ccc(O)c(O)c2)oc2cc(O)cc(O)c12 [Quercetin, reference compound] | – | – | – | 5.97 ± 0.11 µM | – | – | 0.0042 |
| Cc1c(C)c2c(c(C)c1O)CCC(C)(C(=O)O)O2 (centres unmarked) [Trolox, reference compound] | – | – | – | 18.7 ± 0.65 µM | – | – | 0.011 |
